Assay type in all cases: biochemical
For one assay, the target named is T1, MET (Homo sapiens, UniProt P08581).
T1 construct: was evaluated using an enzyme assay with a recombinant kinase domain; purchased Invitrogen (Carlsbad, CA, US)
In words: HTRF enzyme assay with recombinant MET kinase domain. Conditions: purified recombinant MET kinase domain, read-out: Inhibitory Activity, IC50, MET. On the procedure: (§1) The ability of the synthesized compounds to inhibit MET, c-Kit, and VEGFR-2 activities was evaluated using an enzyme assay with a recombinant kinase domain [29]. Based on the structure activity relationship (SAR) of MET inhibitors, we proposed that the removal of the key diaryl ether fragments in compound 3 would result in a loss of MET activity.
(§2) The ability of compounds to inhibit the activity of three kinases (MET, c-Kit, and VEGFR-2) was tested in vitro [30]. Enzyme assays were run in homogeneous time-resolved fluorescence (HTRF) format in 384-well microtiter plates using purified kinases purchased from Invitrogen (Carlsbad, CA, US). The HTRF KinEASE TK kit (contains substrate-biotin, antibody-cryptate, streptavidin-XL665, 5×enzymatic buffer, and detection buffer) was purchased from Cisbio (Codolet, France), and the kinase assays were performed according to the manufacturer’s instructions. After the kinases and the compounds incubated at 25~30 °C for 5 min, the reactions were initiated by the addition of 2 μL of mixed substrate solution (mixed solution of ATP (Sigma, Shanghai, China) and substrate-biotin). The final concentrations of kinases were at EC80 and the total reaction volume was 8 μL. Plates were incubated at 30 °C for 30~60 min, then the reactions were quenched by the addition 8 μL mixed detection solution (mixed solution of antibody-cryptate and streptavidin-XL665 in detection buffer). The fluorescence excitation wavelength was […]. The fluorescence at 665 nm (acceptor emission wavelength) and 620 nm (donor emission wavelength) was measured with a PHERAstar FS plate reader (BMG, LABTECH, Ortenberg, Germany) using a time delay of 50 μs. All kinase assays were conducted using ATP concentrations below the enzyme Kmapp and kinase-specific biotinylated substrate peptides.
(§3) The data for dose responses were plotted as percentage of inhibition calculated with the data reduction formula 100 × [1 − (U1 − C2)/(C1 − C2)] versus concentration of compound, where U is the emission ratio of 665 nm and 620 nm of test sample, C1 is the average value obtained for solvent control (2% DMSO), and C2 is the average value obtained for no reaction control (no kinase sample). Inhibition curves were generated by plotting percentage of control activity versus log10 of the concentration of each […]. The IC50 values were calculated by nonlinear regression with Graphpad Prism 5 (GraphPad Software, San Diego, CA).
Background: In TR-FRET formats the signal depends on donor and acceptor labels being close together.

A further assay has as its target T2, c-Kit (Homo sapiens, UniProt P10721).
T2 construct: was evaluated using an enzyme assay with a recombinant kinase domain; purchased Invitrogen (Carlsbad, CA, US)
The assay is described as follows: HTRF enzyme assay with recombinant c-Kit kinase domain. Conditions: for IC50: purified recombinant c-Kit kinase domain, HTRF, read-out: Inhibitory Activity, IC50, c-Kit. As for the experimental part:
as §1, §2, §3

Another assay deals with T3, VEGFR-2 (Homo sapiens, UniProt P35968).
T3 construct: was evaluated using an enzyme assay with a recombinant kinase domain; purchased Invitrogen (Carlsbad, CA, US)
The assay is described as follows: HTRF enzyme assay with recombinant VEGFR-2 kinase domain. The settings on record: for IC50: purified recombinant VEGFR-2 kinase domain, HTRF, read-out: Inhibitory Activity, IC50, VEGFR-2; for VEGFR-2 potency, fold more potent than compound 3: ratio of IC50 values vs compound 3. As for the experimental part: as §1, §2, §3

[1] abbreviates: ratio of IC50 values vs compound 3.

T3 sequence (P35968 834-1162 limits assumed): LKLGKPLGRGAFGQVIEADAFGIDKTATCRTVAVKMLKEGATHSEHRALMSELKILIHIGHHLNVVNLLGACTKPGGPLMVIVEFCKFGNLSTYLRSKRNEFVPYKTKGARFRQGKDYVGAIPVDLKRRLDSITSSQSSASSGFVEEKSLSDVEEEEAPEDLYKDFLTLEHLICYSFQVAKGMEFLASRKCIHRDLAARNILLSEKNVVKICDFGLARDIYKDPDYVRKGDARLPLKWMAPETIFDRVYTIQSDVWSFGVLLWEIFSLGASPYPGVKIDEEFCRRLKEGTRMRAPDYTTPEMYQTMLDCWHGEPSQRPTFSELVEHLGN
T1 sequence (P08581 1078-1345 limits assumed): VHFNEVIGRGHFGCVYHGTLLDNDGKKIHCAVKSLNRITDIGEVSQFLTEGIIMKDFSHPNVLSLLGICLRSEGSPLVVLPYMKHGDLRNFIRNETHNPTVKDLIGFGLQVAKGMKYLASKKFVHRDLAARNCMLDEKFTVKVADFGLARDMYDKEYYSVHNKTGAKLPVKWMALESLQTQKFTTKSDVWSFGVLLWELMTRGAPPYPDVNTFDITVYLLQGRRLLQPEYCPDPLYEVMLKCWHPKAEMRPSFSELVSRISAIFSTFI
T2 sequence (P10721 589-937 limits assumed): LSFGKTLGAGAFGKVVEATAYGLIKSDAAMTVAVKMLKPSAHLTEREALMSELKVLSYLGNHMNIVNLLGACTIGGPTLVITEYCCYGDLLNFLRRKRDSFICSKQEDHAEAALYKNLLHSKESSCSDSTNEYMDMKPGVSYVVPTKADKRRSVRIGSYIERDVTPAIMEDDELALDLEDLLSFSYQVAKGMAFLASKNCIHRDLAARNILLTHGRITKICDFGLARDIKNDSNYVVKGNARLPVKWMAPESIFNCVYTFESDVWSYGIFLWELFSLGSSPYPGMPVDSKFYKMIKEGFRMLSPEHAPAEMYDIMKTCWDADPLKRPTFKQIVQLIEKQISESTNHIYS

As for `Cc1cc2ccnc(NCc3cccc4ccccc34)c2c(=O)n1-c1ccc(OC(F)(F)F)cc1` [Compound 10q, 3-methyl-8-((naphthalen-1-ylmethyl)amino)-2-(4-(trifluoromethoxy)phenyl)-2,7-naphthyridin-1(2H)-one], the IC50 on MET, at c-Kit and on VEGFR-2 was over 5 µM in each case.

In the case of `Cc1cc2ccnc(NCc3cccnc3)c2c(=O)n1-c1ccc(OC(F)(F)F)cc1` [Compound 10n, 3-methyl-8-((pyridin-3-ylmethyl)amino)-2-(4-(trifluoromethoxy)phenyl)-2,7-naphthyridin-1(2H)-one], the IC50 on MET, on c-Kit and on VEGFR-2 was over 5 µM each time.

As for `Cc1cc2ccnc(NCc3ccnc4ccccc34)c2c(=O)n1-c1ccc(F)cc1F` [Compound 10s, 2-(2,4-difluorophenyl)-3-methyl-8-((quinolin-4-ylmethyl)amino)-2,7-naphthyridin-1(2H)-one], the IC50 – broadly, the midpoint of a concentration-inhibition curve – on MET is over 5 µM; on c-Kit, over 5 µM; at VEGFR-2, 0.887 µM.

As for `O=c1c2c(Nc3ccccc3)nccc2ccn1-c1ccc(F)cc1` [Compound 9a, 2-(4-fluorophenyl)-8-(phenylamino)-2,7-naphthyridin-1(2H)-one], the IC50 on MET, at c-Kit and at VEGFR-2 was over 5 µM in each case.

In the case of `Cc1cccc(C)c1Nc1nccc2ccn(-c3ccc(F)cc3)c(=O)c12` [Compound 9b, 8-((2,6-dimethylphenyl)amino)-2-(4-fluorophenyl)-2,7-naphthyridin-1(2H)-one], the IC50 on MET, at c-Kit and on VEGFR-2 was over 5 µM in each case.

`Cc1cc2ccnc(NCc3ccco3)c2c(=O)n1-c1ccc(OC(F)(F)F)cc1` [Compound 10p, 8-((furan-2-ylmethyl)amino)-3-methyl-2-(4-(trifluoromethoxy)phenyl)-2,7-naphthyridin-1(2H)-one]: the IC50 at MET, at c-Kit and on VEGFR-2 was over 5 µM throughout.

Take `Cc1cc2ccnc(NCc3cccnc3)c2c(=O)n1-c1ccc(Cl)cc1` [Compound 10j, 2-(4-chlorophenyl)-3-methyl-8-((pyridin-3-ylmethyl)amino)-2,7-naphthyridin-1(2H)-one]: the IC50 on MET, at c-Kit and at VEGFR-2 was over 5 µM throughout.

Consider `Cc1cc2ccnc(NCc3ccnc4ccccc34)c2c(=O)n1-c1ccc(OC(F)(F)F)cc1` [Compound 10r, 3-methyl-8-((quinolin-4-ylmethyl)amino)-2-(4-(trifluoromethoxy)phenyl)-2,7-naphthyridin-1(2H)-one], for which the IC50 at MET is over 5 µM. For the same molecule, on c-Kit, the “c-Kit inhibitory activity (in words)” value is “slightly stronger c-Kit inhibitory activity than compound 3” and the IC50 is 0.169 µM. Moreover, on c-Kit (compared with 9g), the “c-Kit potency relative to compound 9g” value is “five-times more potent than compound 9g”. Besides, on VEGFR-2, the IC50 was found to be 0.0317 µM and the “VEGFR-2 potency, fold more potent than compound 3” value is given as 5.0–8.8 fold.

As for `Cc1cc2ccnc(NCc3ccnc4ccccc34)c2c(=O)n1-c1ccccc1` [Compound 10h, 3-methyl-2-phenyl-8-((quinolin-4-ylmethyl)amino)-2,7-naphthyridin-1(2H)-one], the results for the IC50 on MET, on c-Kit and at VEGFR-2 were over 5 µM, over 5 µM and 1.03 µM, respectively.

`Cc1cc2ccnc(NCc3ccncc3)c2c(=O)n1-c1ccccc1` [Compound 10g, 3-methyl-2-phenyl-8-((pyridin-4-ylmethyl)amino)-2,7-naphthyridin-1(2H)-one]: the half-maximal inhibitory concentration (IC50) at MET, at c-Kit and on VEGFR-2 was over 5 µM throughout.

As for `O=c1c2c(NCc3cccc4ccccc34)nccc2ccn1-c1ccc(F)cc1` [Compound 9j, 2-(4-fluorophenyl)-8-((naphthalen-1-ylmethyl)amino)-2,7-naphthyridin-1(2H)-one], the IC50 at MET, on c-Kit and at VEGFR-2 was over 5 µM in each case.

Consider `Cc1cc2ccnc(Nc3cccnc3)c2c(=O)n1-c1ccccc1` [Compound 10e, 3-methyl-2-phenyl-8-(pyridin-3-ylamino)-2,7-naphthyridin-1(2H)-one], for which the IC50 on MET, on c-Kit and at VEGFR-2 was over 5 µM in each case.

On to `O=c1c2c(NCc3ccncc3)nccc2ccn1-c1ccc(F)cc1` [Compound 9g, 2-(4-fluorophenyl)-8-((pyridin-4-ylmethyl)amino)-2,7-naphthyridin-1(2H)-one], for which the results for the IC50 on MET, on c-Kit and at VEGFR-2 were over 5 µM, 0.832 µM and 0.601 µM, respectively. Also, the “c-Kit potency, fold less potent than compound 3” value at c-Kit (setting [1]) came to 2.5 fold.

As to `O=c1c2c(NCc3cccnc3)nccc2ccn1-c1ccc(F)cc1` [Compound 9h, 2-(4-fluorophenyl)-8-((pyridin-3-ylmethyl)amino)-2,7-naphthyridin-1(2H)-one], the IC50 on MET, on c-Kit and at VEGFR-2 was over 5 µM throughout.

On to `Cc1cc2ccnc(NCc3ccncc3)c2c(=O)n1-c1ccc(F)cc1` [Compound 10c, 2-(4-fluorophenyl)-3-methyl-8-((pyridin-4-ylmethyl)amino)-2,7-naphthyridin-1(2H)-one], for which the IC50 at MET, at c-Kit and on VEGFR-2 was over 5 µM in each case.

For `O=c1c2c(Nc3ccc4ccncc4c3)nccc2ccn1-c1ccc(F)cc1` [Compound 9e, 2-(4-fluorophenyl)-8-(isoquinolin-7-ylamino)-2,7-naphthyridin-1(2H)-one], the IC50 on MET, on c-Kit and on VEGFR-2 was over 5 µM each time.

Regarding `Cc1cc2ccnc(Nc3cccnc3)c2c(=O)n1-c1ccc(OC(F)(F)F)cc1` [Compound 10m, 3-methyl-8-(pyridin-3-ylamino)-2-(4-(trifluoromethoxy)phenyl)-2,7-naphthyridin-1(2H)-one], the IC50 at MET, on c-Kit and at VEGFR-2 was over 5 µM each time.

Consider `Cc1cc2ccnc(Nc3cccnc3)c2c(=O)n1-c1ccc(F)cc1` [Compound 10a, 2-(4-fluorophenyl)-3-methyl-8-(pyridin-3-ylamino)-2,7-naphthyridin-1(2H)-one], for which the IC50 at MET, on c-Kit and on VEGFR-2 was over 5 µM in each case.

Take `Cc1cc2ccnc(NCc3cccnc3)c2c(=O)n1-c1ccc(F)cc1` [Compound 10b, 2-(4-fluorophenyl)-3-methyl-8-((pyridin-3-ylmethyl)amino)-2,7-naphthyridin-1(2H)-one]: the IC50 at MET, at c-Kit and on VEGFR-2 was over 5 µM in each case.

With `O=c1c2c(Nc3c(Cl)cccc3Cl)nccc2ccn1-c1ccc(F)cc1` [Compound 9c, 8-((2,6-dichlorophenyl)amino)-2-(4-fluorophenyl)-2,7-naphthyridin-1(2H)-one], the IC50 was over 5 µM on MET, over 5 µM on c-Kit and 0.691 µM on VEGFR-2.

Take `O=c1c2c(NCc3ccnc4ccccc34)nccc2ccn1-c1ccc(F)cc1` [Compound 9k, 2-(4-fluorophenyl)-8-((quinolin-4-ylmethyl)amino)-2,7-naphthyridin-1(2H)-one]: the IC50 was over 5 µM at MET, 0.0085 µM at c-Kit and 0.238 µM at VEGFR-2. For the same molecule, the “c-Kit potency, fold more potent than compound 3” value on c-Kit (setting [1]) was found to be 38.8 fold.

On to `Cc1cc2ccnc(NCc3ccnc4ccccc34)c2c(=O)n1-c1ccc(Cl)cc1` [Compound 10l, 2-(4-chlorophenyl)-3-methyl-8-((quinolin-4-ylmethyl)amino)-2,7-naphthyridin-1(2H)-one], for which the IC50 at MET was over 5 µM. On c-Kit, the “c-Kit inhibitory activity (in words)” value is recorded as “slightly stronger c-Kit inhibitory activity than compound 3” and the IC50 came out at 0.107 µM. Moreover, on VEGFR-2, the IC50 worked out at 0.0565 µM and the “VEGFR-2 potency, fold more potent than compound 3” value is on record as 5.0–8.8 fold.

Consider `O=c1c2c(Nc3cccnc3)nccc2ccn1-c1ccc(F)cc1` [Compound 9d, 2-(4-fluorophenyl)-8-(pyridin-3-ylamino)-2,7-naphthyridin-1(2H)-one], for which the IC50 on MET, at c-Kit and at VEGFR-2 was over 5 µM each time.

The values above are taken from PMC6943726, “Discovery of 8-Amino-Substituted 2-Phenyl-2,7-Naphthyridinone Derivatives as New c-Kit/VEGFR-2 Kinase Inhibitors” (Molecules, 2019).
